Data reported in paper PMC8359396, “Pharmacological validation of TDO as a target for Parkinson’s disease” (The Febs Journal, 2021).
pIC50: −log10 of the molar value.

Legend:
[1] = system: rotenone‐induced mouse model of PD; assay: Spatial memory test in rotenone model; conditions: rotenone mice, 42 days after surgery
[2] = molecular target: recombinant hIDO1 (Homo sapiens, UniProt P14902); assay: IDO1 biochemical assay (NFK Green); conditions: for inhibition at 0.6 µM: read-out: inhibition hIDO1
Sequence of recombinant hIDO1 (P14902 whole entry): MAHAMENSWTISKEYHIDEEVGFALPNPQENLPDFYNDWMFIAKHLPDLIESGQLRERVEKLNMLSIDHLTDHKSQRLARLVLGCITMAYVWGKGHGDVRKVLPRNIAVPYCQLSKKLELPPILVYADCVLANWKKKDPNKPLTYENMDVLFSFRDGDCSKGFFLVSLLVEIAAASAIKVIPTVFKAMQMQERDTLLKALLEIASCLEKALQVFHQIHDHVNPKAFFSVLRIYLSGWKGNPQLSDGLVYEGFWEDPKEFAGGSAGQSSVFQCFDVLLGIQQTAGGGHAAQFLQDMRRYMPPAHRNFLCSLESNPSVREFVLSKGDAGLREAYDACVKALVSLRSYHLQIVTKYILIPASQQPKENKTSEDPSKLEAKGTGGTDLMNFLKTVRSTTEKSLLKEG

[3] = molecular target: SW48 (hTDO) (Homo sapiens, UniProt P48775); assay: cell-based
Sequence of SW48 (hTDO) (P48775 whole entry): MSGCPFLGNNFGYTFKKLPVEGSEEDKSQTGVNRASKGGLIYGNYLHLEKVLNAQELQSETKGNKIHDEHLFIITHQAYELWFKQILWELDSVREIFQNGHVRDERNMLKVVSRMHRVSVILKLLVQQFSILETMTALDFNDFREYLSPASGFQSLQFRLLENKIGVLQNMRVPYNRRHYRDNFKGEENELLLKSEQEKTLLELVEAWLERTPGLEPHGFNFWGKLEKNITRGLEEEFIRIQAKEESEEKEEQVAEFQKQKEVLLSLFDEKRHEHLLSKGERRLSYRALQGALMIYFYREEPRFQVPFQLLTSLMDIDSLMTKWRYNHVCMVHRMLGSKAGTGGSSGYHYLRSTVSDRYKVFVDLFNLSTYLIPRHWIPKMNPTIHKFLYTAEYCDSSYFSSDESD

[4] = molecular target: T1, recombinant human TDO (hTDO) (Homo sapiens, UniProt P48775); assay: biochemical
T1 sequence (P48775 whole entry): as above

[5] = molecular target: CYP2C8 (Homo sapiens, UniProt P10632); assay: CYP enzyme panel; format: biochemical
Sequence of CYP2C8 (P10632 whole entry): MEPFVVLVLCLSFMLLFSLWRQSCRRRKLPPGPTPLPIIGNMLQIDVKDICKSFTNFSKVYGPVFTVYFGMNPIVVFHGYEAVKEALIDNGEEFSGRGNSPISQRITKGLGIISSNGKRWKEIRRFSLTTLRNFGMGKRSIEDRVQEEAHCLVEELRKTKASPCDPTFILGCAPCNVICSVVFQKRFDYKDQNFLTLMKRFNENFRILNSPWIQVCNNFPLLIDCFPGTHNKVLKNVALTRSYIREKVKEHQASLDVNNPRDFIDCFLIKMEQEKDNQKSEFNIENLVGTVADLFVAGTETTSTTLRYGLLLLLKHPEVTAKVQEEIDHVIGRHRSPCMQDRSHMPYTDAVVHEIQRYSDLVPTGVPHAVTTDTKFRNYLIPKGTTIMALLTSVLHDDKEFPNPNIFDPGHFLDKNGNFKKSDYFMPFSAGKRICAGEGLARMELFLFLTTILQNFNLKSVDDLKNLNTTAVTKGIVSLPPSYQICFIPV
Text: (§1) Since TDO contains a heme center, similar to cytochrome P450 (CYP) enzymes, we evaluated the selectivity of NTRC 3531‐0 on a panel of seven CYP enzymes, that is, CYP1A2, CYP2B6, CYP2C8, CYP2C9, CYP2C19, CYP2D6, and CYP3A4.

[6] = molecular target: CYP1A2 (Homo sapiens, UniProt P05177); assay: CYP enzyme panel; format: biochemical
Sequence of CYP1A2 (P05177 whole entry): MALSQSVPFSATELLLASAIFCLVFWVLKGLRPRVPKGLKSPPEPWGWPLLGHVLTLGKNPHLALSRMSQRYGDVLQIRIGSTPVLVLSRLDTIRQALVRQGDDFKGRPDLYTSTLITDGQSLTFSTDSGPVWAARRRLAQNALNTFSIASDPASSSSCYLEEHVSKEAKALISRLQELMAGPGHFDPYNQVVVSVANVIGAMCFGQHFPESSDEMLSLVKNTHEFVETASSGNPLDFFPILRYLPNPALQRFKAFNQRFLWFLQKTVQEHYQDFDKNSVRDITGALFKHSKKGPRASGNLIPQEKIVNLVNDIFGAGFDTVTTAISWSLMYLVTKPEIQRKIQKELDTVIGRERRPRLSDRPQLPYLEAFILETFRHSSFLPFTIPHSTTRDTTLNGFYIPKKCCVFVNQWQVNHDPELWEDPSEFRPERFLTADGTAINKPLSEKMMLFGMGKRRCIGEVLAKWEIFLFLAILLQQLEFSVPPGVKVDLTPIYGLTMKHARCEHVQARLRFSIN
Text: as §1

[7] = molecular target: CYP2C19 (Homo sapiens, UniProt P33261); assay: CYP enzyme panel; format: biochemical
Sequence of CYP2C19 (P33261 whole entry): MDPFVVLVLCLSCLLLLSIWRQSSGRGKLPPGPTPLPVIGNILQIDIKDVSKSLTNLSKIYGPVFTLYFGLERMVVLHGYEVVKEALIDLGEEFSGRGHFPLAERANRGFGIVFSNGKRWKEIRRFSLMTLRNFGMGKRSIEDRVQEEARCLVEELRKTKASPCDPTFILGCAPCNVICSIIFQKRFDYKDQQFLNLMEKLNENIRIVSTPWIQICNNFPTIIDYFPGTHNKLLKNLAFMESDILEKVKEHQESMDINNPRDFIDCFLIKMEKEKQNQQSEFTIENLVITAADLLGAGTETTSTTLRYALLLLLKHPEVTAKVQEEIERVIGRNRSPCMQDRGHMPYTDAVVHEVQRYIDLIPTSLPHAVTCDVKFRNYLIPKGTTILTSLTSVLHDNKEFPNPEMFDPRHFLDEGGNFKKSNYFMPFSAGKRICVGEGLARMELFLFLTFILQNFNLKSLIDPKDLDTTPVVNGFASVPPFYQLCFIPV
Text: as §1

[8] = molecular target: CYP2C9 (Homo sapiens, UniProt P11712); assay: CYP enzyme panel; format: biochemical
Sequence of CYP2C9 (P11712 whole entry): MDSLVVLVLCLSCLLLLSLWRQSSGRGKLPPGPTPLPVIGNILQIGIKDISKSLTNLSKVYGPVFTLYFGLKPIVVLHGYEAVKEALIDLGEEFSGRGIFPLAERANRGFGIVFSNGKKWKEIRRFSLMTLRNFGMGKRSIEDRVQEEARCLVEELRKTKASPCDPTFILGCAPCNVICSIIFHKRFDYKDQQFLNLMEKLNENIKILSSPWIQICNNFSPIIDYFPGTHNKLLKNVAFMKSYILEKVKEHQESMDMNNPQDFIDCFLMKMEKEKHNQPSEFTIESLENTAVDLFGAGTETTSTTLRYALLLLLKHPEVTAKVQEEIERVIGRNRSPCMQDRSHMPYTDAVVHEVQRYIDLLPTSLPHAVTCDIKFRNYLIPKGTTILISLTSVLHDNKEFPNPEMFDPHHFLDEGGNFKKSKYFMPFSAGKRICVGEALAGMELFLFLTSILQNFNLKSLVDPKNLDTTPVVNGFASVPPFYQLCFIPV
Text: as §1

[9] = molecular target: CYP2B6 (Homo sapiens, UniProt P20813); assay: CYP enzyme panel; format: biochemical
Sequence of CYP2B6 (P20813 whole entry): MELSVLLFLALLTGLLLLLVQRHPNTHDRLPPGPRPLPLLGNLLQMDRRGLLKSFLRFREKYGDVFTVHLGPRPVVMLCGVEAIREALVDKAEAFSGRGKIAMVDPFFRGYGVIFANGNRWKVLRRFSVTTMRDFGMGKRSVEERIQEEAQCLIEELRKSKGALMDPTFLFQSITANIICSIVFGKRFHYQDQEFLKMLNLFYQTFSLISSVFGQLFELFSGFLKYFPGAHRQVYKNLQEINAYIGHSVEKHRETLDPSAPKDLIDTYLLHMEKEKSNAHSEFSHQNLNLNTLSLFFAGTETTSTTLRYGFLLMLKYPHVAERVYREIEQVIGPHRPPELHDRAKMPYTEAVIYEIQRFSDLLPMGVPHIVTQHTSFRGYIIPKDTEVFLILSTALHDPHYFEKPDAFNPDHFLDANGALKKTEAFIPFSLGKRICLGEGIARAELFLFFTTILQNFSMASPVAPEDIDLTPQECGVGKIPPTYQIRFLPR
Text: as §1

[10] = molecular target: CYP2D6 (Homo sapiens, UniProt P10635); assay: CYP enzyme panel; format: biochemical
Sequence of CYP2D6 (P10635 whole entry): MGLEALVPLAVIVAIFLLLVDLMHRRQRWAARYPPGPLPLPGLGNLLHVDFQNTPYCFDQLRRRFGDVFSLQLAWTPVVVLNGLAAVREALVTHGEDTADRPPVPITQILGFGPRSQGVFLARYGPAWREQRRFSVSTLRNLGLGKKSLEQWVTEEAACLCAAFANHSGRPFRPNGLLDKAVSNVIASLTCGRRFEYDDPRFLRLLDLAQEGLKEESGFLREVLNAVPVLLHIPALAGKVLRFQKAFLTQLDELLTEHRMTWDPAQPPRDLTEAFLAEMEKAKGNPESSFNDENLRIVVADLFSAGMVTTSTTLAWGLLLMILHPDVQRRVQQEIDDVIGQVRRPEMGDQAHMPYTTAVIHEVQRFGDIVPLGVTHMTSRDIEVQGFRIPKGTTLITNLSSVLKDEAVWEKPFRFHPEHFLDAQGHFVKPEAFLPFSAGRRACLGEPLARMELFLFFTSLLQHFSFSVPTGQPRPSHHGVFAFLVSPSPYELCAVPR
Text: as §1

[11] = molecular target: CYP3A4 (Homo sapiens, UniProt P08684); assay: CYP enzyme panel; format: biochemical
Sequence of CYP3A4 (P08684 whole entry): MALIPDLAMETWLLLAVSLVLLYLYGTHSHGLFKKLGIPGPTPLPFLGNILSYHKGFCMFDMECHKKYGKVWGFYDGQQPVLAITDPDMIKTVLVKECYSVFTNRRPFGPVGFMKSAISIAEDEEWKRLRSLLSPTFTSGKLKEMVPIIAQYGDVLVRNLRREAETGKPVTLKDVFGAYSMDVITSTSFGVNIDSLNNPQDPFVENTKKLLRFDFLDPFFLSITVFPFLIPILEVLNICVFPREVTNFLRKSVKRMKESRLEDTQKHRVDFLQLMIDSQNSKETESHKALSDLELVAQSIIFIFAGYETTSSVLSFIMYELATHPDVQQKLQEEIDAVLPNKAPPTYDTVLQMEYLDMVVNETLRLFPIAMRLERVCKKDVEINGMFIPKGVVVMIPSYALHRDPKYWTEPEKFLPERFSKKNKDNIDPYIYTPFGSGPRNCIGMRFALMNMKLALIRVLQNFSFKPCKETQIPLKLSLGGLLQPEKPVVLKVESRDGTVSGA
Text: as §1

[12] = molecular target: T1, recombinant human TDO (hTDO)
[13] = In vivo pharmacokinetics and brain penetration; conditions: for bioavailability / AUC / Cmax / half-life / Kp / Kp at 5 days / Kp uu: male, C57BL/6NCrl, mouse, in vivo; for bioavailability: F (oral bioavailability); for bioavailability / AUC / Cmax / half-life / Kp uu / AUCbrain / F (oral bioavailability): mice; for AUC: AUCplasma; for Cmax: plasma; for half-life: t½; for Kp uu: Kpuu (unbound brain‐to‐plasma partition coefficient)
[14] = system: rotenone‐induced mouse model of PD; assay: TH‐positive (dopaminergic) cells in substantia nigra, iDISCO; format: in vivo, male C57BL/6NCrl mice; conditions: rotenone mice, P < 0.01
[15] = system: constitutively TDO‐expressing human glioblastoma A172 cell line; design: method as in PMID 31806638; conditions: cited from earlier work
[16] = system: hTDO‐overexpressing HEK‐293 cells; design: method as in PMID 22308364; conditions: originally reported; cited from earlier work
[17] = po, 100 mg, 5‐day p.o., 100 mg∙kg^−1
[18] = po, 100 mg, single p.o., 100 mg∙kg^−1
[19] = po, 50 mg, 5‐day p.o., 50 mg∙kg^−1
[20] = po, 50 mg, single p.o., 50 mg∙kg^−1

## C[C@@H](CO)NC(=O)c1ccc(-c2c[nH]c3cc(F)ccc23)cc1 [NTRC 3531‐0]
[1]; highest dose (100 mg·kg^−1), P < 0.001
  rotenone‐induced spatial recognition loss: significantly less rotenone‐induced spatial recognition loss
[2]; highest tested concentration 31.6 µM
  activity on hIDO1 in the biochemical assay: inactive
[2]
  inhibition at 0.6 µM: < 20%
[3]
  pIC50: 6.66
[4]
  pIC50: 6.31
[5]
  pIC50: 4.79
[6]
  pIC50: < 4.50
[7]
  pIC50: < 4.50
[8]
  pIC50: < 4.50
[9]
  pIC50: < 4.50
[10]
  pIC50: < 4.50
[11]
  pIC50: < 4.50
[12]
  selectivity for hTDO over hIDO1, biochemical assays: more than 60 times
[13]; 100 mg/kg, single p.o. 100 mg∙kg^−1 compared with single i.v. 10 mg∙kg^−1
  bioavailability: 22%
[13]; iv, 10 mg, 10 mg∙kg^−1
  AUC: 93.2 µM·h
  Cmax: 56.5 µM
  half-life: 0.903 h
[13]; po, 100 mg
  Kp: 0.41
  Kp at 5 days: 0.37
[13]; [17]
  AUC: 210 µM·h
  Cmax: 33.2 µM
  Kp uu: 0.067
  half-life: 3.13 h
[13]; [18]
  AUC: 207 µM·h
  Cmax: 37.5 µM
  Kp uu: 0.074
  half-life: 2.49 h
[13]; 5‐day p.o., 100 mg∙kg^−1
  AUCbrain: 77.0 µM·h
[13]; single p.o. 100 mg∙kg^−1 compared with single i.v. 10 mg∙kg^−1
  F (oral bioavailability): 22.3%
[13]; single p.o., 100 mg∙kg^−1
  AUCbrain: 84.5 µM·h
[14]; highest dose (100 mg·kg^−1)
  rotenone‐induced loss of TH‐positive cells in the SN: decreased the rotenone‐induced loss of TH‐positive cells

## Fc1ccc2c(/C=C/c3nnn[nH]3)c[nH]c2c1 [LM10, reference compound]
[1]; highest dose (50 mg·kg^−1), similar trend
  rotenone‐induced spatial recognition loss: not statistically significant
[2]
  inhibition at 0.6 µM: < 20%
[3]; SW48, read-out: inhibition in SW48 cells
  inhibition at 31.6 µM: 50%
[15]
  pIC50: 4.62
[13]; 50 mg/kg, single p.o. 50 mg∙kg^−1 compared with i.v. 10 mg∙kg^−1
  bioavailability: 63%
[13]; iv, 10 mg, 10 mg∙kg^−1
  AUC: 985 µM·h
  Cmax: 427 µM
  half-life: 1.77 h
[13]; po, 50 mg
  Kp: 0.006
  Kp at 5 days: 0.01
[13]; [19]
  AUC: 2360 µM·h
  Cmax: 391 µM
  Kp uu: 0.02
  half-life: 2.35 h
[13]; [20]
  AUC: 3100 µM·h
  Cmax: 688 µM
  Kp uu: 0.012
  half-life: 3.09 h
[13]; 5‐day p.o., 50 mg∙kg^−1
  AUCbrain: 23.8 µM·h
[13]; single p.o. 50 mg∙kg^−1 compared with i.v. 10 mg∙kg^−1
  F (oral bioavailability): 63.1%
[13]; single p.o., 50 mg∙kg^−1
  AUCbrain: 18.5 µM·h
[14]; two highest doses (25 and 50 mg·kg^−1)
  rotenone‐induced loss of TH‐positive cells in the SN: decreased the rotenone‐induced loss of TH‐positive cells
[16]
  potency in hTDO‐overexpressing HEK‐293 cells: high‐nanomolar potent inhibitor
